Experimental data reported in patent publication US8956824B2, “Methods for identifying allosteric modulators of ship polypeptides” (British Columbia Cancer Agency Branch, priority 2006, dated 2015).
Entries after “also recorded” stand apart in the source; their conditions may differ.

Legend:
[1] = system: SHIP1+/+ and SHIP1−/− BMMCs; test: IgE+antigen-induced calcium flux in BMMCs; format: cell-based, mouse; conditions: 30 min pretreatment, DNP-HSA stimulation
Protocol: Production of SHIP+/+ and SHIP−/− BMMCs and BMnφs. To obtain BMMCs, bone marrow cells were aspirated from 4 to 8 week old C57B16×129Sv mixed background mice and SHIP1+/+ and SHIP1−/− BMMCs prepared as described previously (17). After 8 weeks in IMDM+15% FCS (StemCell Technologies, Vancouver, Canada)+150 μM MTG+30 ng/ml IL-3 (BMMC medium) more than 99% of the cells were c-kit and FcεR1 positive as determined by flow cytometry with FITC-labeled anti-c-kit (BD Pharmingen, Mississauga, Canada) and FITC-labeled IgE (anti-Epo), respectively. BMmφs from SHIP1+/+ and SHIP1−/− mice were obtained and maintained in IMDM supplemented with 10% FCS, 150 μM MTG, 2% C127 cell conditioned medium as a source of macrophage colony stimulating factor (MCSF) (BMmφ medium).
Stimulation of BMMCs by FcεR1 crosslinking. SHIP1+/+ and SHIP1−/− BMMCs were pre-loaded overnight in BMMC medium lacking IL-3 with 0.1 μg/ml anti-DNP IgE (SPE-7, Sigma, Oakville, Ont). […] Calcium influx was then monitored by spectrofluorometry as described previously (19). […] Total cell lysates were then prepared and analyzed for phospho-PKB, phospho-p38MAPK, phospho-MAPK, Grb-2 (Cell Signalling, Mississauga, Ont) and SHIP1 (18) by immunoblot analysis as described previously (20). […]

SHIP1 C2 domain = biological target: T1, SHIP1 C2 domain (Mus musculus, UniProt Q9ES52); test: Protein lipid overlay assay, C2 domain; format: binding; conditions: 200 μM AQX-MN100, 30 min pre-incubation
T1 construct: Recombinant SHIP1 C2 domain (amino acid residues 725 to 863); made in house; host or cells: E. coli, pET28C
T1 sequence (Q9ES52 725-863): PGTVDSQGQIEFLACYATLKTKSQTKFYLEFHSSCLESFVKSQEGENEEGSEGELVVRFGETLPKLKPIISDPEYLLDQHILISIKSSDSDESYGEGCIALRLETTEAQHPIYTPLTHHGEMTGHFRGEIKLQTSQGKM
Protocol: Protein Lipid Overlay Assays Protein Lipid Overlay assays were performed essentially as described (23) with minor modifications. Lyophilized phosphatidylinositol-3,4-bisphosphate diC16 (PIP2, Echelon Biosciences, Salt Lake City, Utah) was reconstituted in a 2:1.8 solution of methanol and water. PVDF membranes (Millipore, Missisauga, Ont) were initially wetted in methanol for 1 minute, and washed 3×5 min with water, and gently agitated in TBST buffer (20 mM Tris pH 7.5, 0.15 M NaCl (TBS) with 0.05% Tween 20) at 23° C. overnight. The treated membranes were air-dried and dilutions of reconstituted lipids were spotted in 1 μl aliquots to give the indicated amount of PIP2 per membrane spot. The membranes were dried completely and blocked with blocking buffer (3% BSA in TBS with 0.05% NaN3) for 1 h at 23° C. on a gentle shaker. Purified, recombinant C2 domain was diluted into blocking buffer (5 μM final) and treated with 200 μM AQX-MN100 or EtOH control for 30 min at 23° C. prior to overnight incubation with the PIP2 spotted membranes. The membranes were washed 10 times over 50 min in TBST buffer at 23° C. and were incubated with anti-His6 mouse IgG (Qiagen, Missisauga, Ont) for 1 hour at 23° C. with gentle rocking. […] The membranes were washed 3 times in TBST over 15 min at 23° C. and the bound proteins were detected and quantified on a Li-Cor Odyssey scanner (Lincoln, Nebr.). […]

| Compound | IgE+antigen-induced calcium entry, SHIP1+/+ vs SHIP1−/− mast cells [1] | inhibition of C2 domain binding to phosphatidylinositol lipid (PI-3,4-P2 / PIP3) (SHIP1 C2 domain) |
| --- | --- | --- |
| Cc1cc(O)c(O)c2c1[C@]1(C)CC[C@H]3C(C)(C)CCC[C@]3(C)[C@H]1C2 [AQX-016A] | inhibited IgE+antigen-induced calcium entry to a substantially greater degree in SHIP1+/+ than in SHIP1−/− | – |
| Cc1cc(O)cc2c1[C@]1(C)CC[C@H]3C(C)(C)CCC[C@]3(C)[C@H]1C2 [AQX-MN100] | – | could compete with PI-3,4-P2 for binding; also recorded: inhibits the binding of the C2; also recorded: is inhibited |
